Earlier results, collected in Sander's compilation of Henry's law constants (doi:10.1016/j.chemosphere.2007.04.088).

Assay: Henry solubility constant Hcp at 298.15 K (mol/(m3 Pa))
Conditions: reference: Warneck (2007); cited value

Row | Structure (SMILES) | Henry solubility constant Hcp
1 | ClCC(Cl)(Cl)Cl [1,1,1,2-tetrachloroethane] | 0.0042
2 | ClC(Cl)C(Cl)Cl [1,1,2,2-tetrachloroethane] | 0.024
3 | ClC(Cl)(Cl)Cl [tetrachloromethane] | 0.00036
4 | CC(Cl)(Cl)Cl [1,1,1-trichloroethane] | 0.0006
5 | ClCCl [dichloromethane] | 0.0039
6 | ClC(Cl)=C(Cl)Cl [tetrachloroethene] | 0.00062
7 | ClC=C(Cl)Cl [trichloroethene] | 0.0011
8 | C=CCl [chloroethene] | 0.00038
9 | CCCl [chloroethane] | 0.00083
10 | ClCC(Cl)Cl [1,1,2-trichloroethane] | 0.011
11 | C=C(Cl)Cl [1,1-dichloroethene] | 0.00037
